Patent publication US20110059947A1, “ALPHA 7 NICOTINIC AGONISTS AND ANTIPSYCHOTICS” (Targacept, Inc., priority 2008, published 2011)
Several values for one entry are separate records, joined by “and”; a condition that tells them apart may be missing. Equal entries are not always repeated.

Tests used:
sigma site 2 = target: T1, sigma site 2 (Homo sapiens, UniProt Q5BJF2); test: Sigma site 2 binding (Novascreen)
T1 construct: Novascreen

5HT3 receptors [1] = target: T2, 5HT3 receptors (Mus musculus, UniProt P23979); test: 5HT3 receptor radioligand binding, mouse receptor; settings: 10 μM
T2 sequence (P23979 24-489): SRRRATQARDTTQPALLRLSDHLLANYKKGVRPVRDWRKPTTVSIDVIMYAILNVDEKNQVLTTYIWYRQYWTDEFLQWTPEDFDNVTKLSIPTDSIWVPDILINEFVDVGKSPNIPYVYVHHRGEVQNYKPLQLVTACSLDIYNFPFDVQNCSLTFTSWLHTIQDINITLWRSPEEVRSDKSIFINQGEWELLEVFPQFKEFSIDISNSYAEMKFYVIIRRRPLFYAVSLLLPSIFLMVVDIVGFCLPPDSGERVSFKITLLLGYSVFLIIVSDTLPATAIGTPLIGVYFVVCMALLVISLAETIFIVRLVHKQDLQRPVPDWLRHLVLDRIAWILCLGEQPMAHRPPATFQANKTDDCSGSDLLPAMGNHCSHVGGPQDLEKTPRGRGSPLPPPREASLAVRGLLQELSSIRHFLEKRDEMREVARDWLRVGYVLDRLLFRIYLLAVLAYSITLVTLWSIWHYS

human muscle receptors = target: T3, human muscle receptors (Homo sapiens, UniProt P02708+P07510+Q07001); test: Muscle function (Ca++ flux), TE-671 cells; assay type: cell-based; settings: human TE-671 cells, % of nicotine's Emax
T3 construct: expressed in appropriate rat and human cell lines; endogenous in cells

human ganglion receptors = test: Ganglion function (Ca++ flux), SH-SY5Y cells; assay type: cell-based; settings: % of nicotine's Emax
opioid receptor = settings: read-out: Ki opioid site; dose-response assessment
rat ganglion receptors = test: Ganglion function (Ca++ flux), PC-12 Shooter cells; assay type: cell-based; settings: rat PC-12 Shooter cells, % of nicotine's Emax
th(tk-)/th(tk-) mice = test: Prepulse inhibition (PPI) and acoustic startle in th(tk-)/th(tk-) and control mice; assay type: in vivo
5HT3 receptors [2] = target: T4, 5HT3 receptors (Homo sapiens, UniProt P46098); test: 5HT3 receptor radioligand binding, human receptor; settings: 10 μM
T4 sequence (P46098 24-478): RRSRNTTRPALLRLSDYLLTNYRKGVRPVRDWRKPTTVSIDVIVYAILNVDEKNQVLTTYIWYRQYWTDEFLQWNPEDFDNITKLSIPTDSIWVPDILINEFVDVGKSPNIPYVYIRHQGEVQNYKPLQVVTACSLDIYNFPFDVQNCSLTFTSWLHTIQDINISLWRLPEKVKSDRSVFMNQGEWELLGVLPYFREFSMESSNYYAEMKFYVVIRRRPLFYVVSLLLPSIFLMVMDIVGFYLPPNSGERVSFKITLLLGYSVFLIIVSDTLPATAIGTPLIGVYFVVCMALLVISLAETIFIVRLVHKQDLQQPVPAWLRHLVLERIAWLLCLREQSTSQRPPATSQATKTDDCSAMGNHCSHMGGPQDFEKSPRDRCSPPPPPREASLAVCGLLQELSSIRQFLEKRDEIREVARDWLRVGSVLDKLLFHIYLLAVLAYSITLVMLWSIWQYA

human α4β2 sub-type = target: T5, human α4β2 sub-type (Homo sapiens, UniProt P17787+P43681); test: Functional activation in Xenopus oocytes (electrophysiology); assay type: cell-based
T5 construct: expressed in transfected cells; host or cells: Xenopus oocytes

5HT3 receptors [3] = target: T4, 5HT3 receptors; test: Functional activation at the human 5HT3 receptor; assay type: cell-based; settings: read-out: maximal response, functional activation of human 5HT3 receptor
rats = test: Novel object recognition (NOR) in rats; assay type: in vivo, rat
Text: The object recognition model is based on a rodent's spontaneous tendency to explore novel aspects of their environment and this exploratory activity can be an index for memory function (Ennaceur and Delacour, 1988). The NOR test measures the capacity to recognize an object presented on two occasions, some time apart. The test arena consisted of a 17.5×17.5″ clear Plexiglas™ with walls 12″ in height. The arena was enclosed in an opaque, sound-attenuating chamber and the doors (opening to the front side) remained open. […] On the first two days of this sub-acute dosing paradigm, administrations were followed 30 minutes later by an exploratory (habituation) trial (6 minutes) on Day 1 (no objects) and object recognition acquisition trial (3 minutes) on Day 2 (2 of the same objects). On the third day the final OR trial, or recall trial (3 minutes; one familiar, one novel object) was started at either 30 min, 2 h, 6 h, 18 h or 24 h after compound administration. For the recall trial, a video camera was positioned approximately 36″ from the unshielded side of the arena for videotaping of the animals' behaviors. These behaviors were subsequently hand-scored by a blinded observer assessing the time spent exploring a novel (object B) versus a familiar (object A) object during this recall exposure trial. Absolute exploration time for each object was recorded, and a % recognition index was calculated as follows: % RI=[(time investigating novel object)/(total time investigating both novel+familiar objects)] […] Where significant overall effects were found, post-hoc analyses were performed. P<0.05 was considered significant.

[4] = system: non-nicotinic receptor classes; test: Broad receptor selectivity battery (Novascreen); settings: criterion: inhibition of receptor-selective ligand binding >50% at 10 μM
human α4β2 receptors = target: T6, human α4β2 receptors (Homo sapiens, UniProt P17787+P43681); test: [3H]-(S)-nicotine competition binding in SH-EP1 cellular membranes; settings: SH-EP1 cells
T6 construct: expressed in transfected cells; host or cells: SH-EP1

Sprague-Dawley rats = test: Apomorphine-induced impairment of pre-pulse inhibition; assay type: in vivo, rat; settings: Compound A 0.3 mg/kg s.c., apomorphine 1.0 mg/kg s.c., p<0.001

With `O=C(N[C@@H]1C2CCN(CC2)[C@H]1Cc1cccnc1)c1cc2ccccc2o1` [Compound A, (2S,3R)—N-(2-((3-pyridinyl)methyl)-1-azabicyclo[2.2.2]oct-3-yl)benzofuran-2-carboxamide] the “inhibition of ligand binding, sigma site 2” value (sigma site 2; 10 μM) was 79 % inhibition, the Ki (sigma site 2; dose-response assessment) was 13 µM and the “inhibition of radioligand binding at 5HT3, mouse receptor” value (5HT3 receptors [1]) was 59 % inhibition. The “Muscle Function (Ca++ flux) % nicotine @ 10 uM” value (human muscle receptors; 10 uM) was 5 % nicotine and 5 ± 2 % nicotine, the “Muscle Function (Ca++ flux) % nicotine @ 100 uM” value (human muscle receptors; 100 uM) was 12 % nicotine and 12 ± 7 % nicotine and the “Ganglion Function (Ca++ flux) % nicotine @ 10 uM” value (human ganglion receptors; 10 uM) was 6 % nicotine and 6 ± 2 % nicotine. For the same molecule, the “Ganglion Function (Ca++ flux) % nicotine @ 100 uM” value (human ganglion receptors; 100 uM) was 11 % nicotine and 11 ± 1 % nicotine, the Ki (opioid receptor) was 13 µM and the “Ganglion Function (Ca++ flux) % nicotine @ 10 uM” value (rat ganglion receptors; 10 uM) was 11 % nicotine and 11 ± 6 % nicotine. The “Ganglion Function (Ca++ flux) % nicotine @ 100 uM” value (rat ganglion receptors; 100 uM) was 20 % nicotine and 20 ± 8 % nicotine, the PPI or startle (th(tk-)/th(tk-) mice; Compound A 0.1 mg/kg given individually) was “little effect” and the PPI (th(tk-)/th(tk-) mice; control (wild type) mice, Compound A) was “no effect on control”. For the same molecule, the startle response (th(tk-)/th(tk-) mice; th(tk-)/th(tk-) mice, Compound A) was “normalizes startle response”, the “deficits in PPI” value (th(tk-)/th(tk-) mice; th(tk-)/th(tk-) mice, Compound A (0.1 and 0.3 mg/kg analyzed)) was “reverse deficits in PPI” and the “PPI, main effect” value (th(tk-)/th(tk-) mice; transgenic th(tk-)/th(tk-) mice, Compound A 0.1 mg/kg alone) was “no significant main effect”. For the same molecule, the “inhibition of radioligand binding at 5HT3, human receptor” value (5HT3 receptors [2]) was 25 % inhibition, the “activation of human α4β2” value (human α4β2 sub-type) was “no detectable activation” and the “decreases in subsequent control responses to ACh (α4β2)” value (human α4β2 sub-type) was “no significant decreases”. For the same molecule, the Emax at 100 µM (5HT3 receptors [3]) was 15%, the “time investigating novel versus familiar object” value (rats; rats, 0.3 mg/kg, 30 min, 2 h, 6 h and 18 h after final sub-acute (q.d. x3 days) administration) was “significantly more time investigating the novel object than the familiar object” and the “time spent investigating the novel object” value (rats; rats, 0.3, 1 and 10 mg/kg p.o., 30 minutes after 3rd q.d. administration) was “significantly increased the time spent investigating the novel object”. For the same molecule, the “duration of working memory facilitation after third sub-acute daily administration” value (rats; young rats, 0.3 mg/kg) was “up to 18 hours”, the “interactions with other non-nicotinic receptor classes” value [4] was “minimal interactions” and the Ki (human α4β2 receptors) was 2800 nM. For the same molecule, the “PPI deficits induced by apomorphine” value (Sprague-Dawley rats) was “significantly reversed PPI deficits”.
